Experimental data reported in ChEMBL document CHEMBL1201862, “PubChem BioAssay data set” (2004).
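Results reflect a 48-hour exposure of cells in 96-well plates to compound at five concentrations. GI50: concentration for 50% inhibition of growth.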 Activity calls are given as the source filed them. No stated cut-off is given here; in the data, active = GI50 up to about 1.1 µM and inactive = higher.

Key:
Assay in all cases: NCI tumour cell line growth inhibition, 48 h
OVCAR-5 = system: OVCAR-5
NCI-H522 = system: NCI-H522
HT-29 = system: HT-29
CAKI-1 = system: CAKI-1
SK-MEL-5 = system: SK-MEL-5
TK-10 = system: TK-10
RXF 393 = system: RXF 393
UACC-62 = system: UACC-62
NCI-H226 = system: NCI-H226
SNB-19 = system: SNB-19
U-251 = system: U-251
HOP-62 = system: HOP-62
MDA-MB-231 = system: MDA-MB-231
SK-OV-3 = system: SK-OV-3
HCT-15 = system: HCT-15
COLO 205 = system: COLO 205
IGROV-1 = system: IGROV-1
UO-31 = system: UO-31
UACC-257 = system: UACC-257
RPMI-8226 = system: RPMI-8226

SMILES | GI50 (OVCAR-5) | GI50 (NCI-H522) | GI50 (HT-29) | GI50 (CAKI-1) | GI50 (SK-MEL-5) | GI50 (TK-10) | GI50 (RXF 393) | GI50 (UACC-62) | GI50 (NCI-H226) | GI50 (SNB-19) | GI50 (U-251) | GI50 (HOP-62) | GI50 (MDA-MB-231) | GI50 (SK-OV-3) | GI50 (HCT-15) | GI50 (COLO 205) | GI50 (IGROV-1) | GI50 (UO-31) | GI50 (UACC-257) | GI50 (RPMI-8226)
CCC1(c2ccc(OC)c(OC)c2)CCN(S(=O)(=O)c2ccc(C)cc2)C1 (centres undefined) | > 100 µM (inactive) | 68.5 µM (inactive) | > 100 µM (inactive) | > 100 µM (inactive) | 33.7 µM (inactive) | > 100 µM (inactive) | > 100 µM (inactive) | > 100 µM (inactive) | > 100 µM (inactive) | > 100 µM (inactive) | > 100 µM (inactive) | > 100 µM (inactive) | > 100 µM (inactive) | > 100 µM (inactive) | > 100 µM | > 100 µM (inactive) | > 100 µM (inactive) | > 100 µM (inactive) | > 100 µM (inactive) | –
CN(C(=O)C12C3(C(=O)O)C4C5(C(=O)O)C3C1(C(=O)O)C5C42C(=O)O)C(C)(C)C (centres undefined) | > 100 µM (inactive) | > 100 µM (inactive) | > 100 µM (inactive) | > 100 µM (inactive) | > 100 µM (inactive) | > 100 µM (inactive) | > 100 µM (inactive) | > 100 µM (inactive) | – | > 100 µM (inactive) | > 100 µM (inactive) | > 100 µM (inactive) | > 100 µM (inactive) | – | > 100 µM | > 100 µM (inactive) | > 100 µM (inactive) | > 100 µM (inactive) | > 100 µM (inactive) | –
O=C1CCCCCCCCCCC1CCCCCBr (centres undefined) | 25.1 µM (inactive) | 19.6 µM (inactive) | 25.9 µM (inactive) | 31.2 µM (inactive) | 15.3 µM (inactive) | 44 µM (inactive) | 19.6 µM (inactive) | 31.1 µM (inactive) | 20.8 µM (inactive) | 25.8 µM (inactive) | 20 µM (inactive) | 29.2 µM (inactive) | 20.3 µM (inactive) | 57.9 µM (inactive) | 24.3 µM | 19.4 µM (inactive) | 20.1 µM (inactive) | 26.1 µM (inactive) | 21.3 µM (inactive) | –
COCC1OC(Sc2ccccc2)C(O)C(OC)C1OC (centres undefined) | > 100 µM (inactive) | > 100 µM (inactive) | > 100 µM (inactive) | > 100 µM (inactive) | > 100 µM (inactive) | > 100 µM (inactive) | > 100 µM (inactive) | > 100 µM (inactive) | > 100 µM (inactive) | > 100 µM (inactive) | > 100 µM (inactive) | > 100 µM (inactive) | > 100 µM (inactive) | > 100 µM (inactive) | > 100 µM | > 100 µM (inactive) | > 100 µM (inactive) | > 100 µM (inactive) | > 100 µM (inactive) | –
O=S(=O)(c1cc(Cl)ccc1Cl)N1CCN(S(=O)(=O)c2cc(Cl)ccc2Cl)CC1 | 16.3 µM (inactive) | > 100 µM (inactive) | > 100 µM (inactive) | > 100 µM (inactive) | > 100 µM (inactive) | > 100 µM (inactive) | > 100 µM (inactive) | 0.489 µM (active) | > 100 µM (inactive) | > 100 µM (inactive) | > 100 µM (inactive) | > 100 µM (inactive) | > 100 µM (inactive) | – | > 100 µM | – | > 100 µM (inactive) | > 100 µM (inactive) | > 100 µM (inactive) | –
O=C(C[N+]12CN3CN(CN(C3)C1)C2)c1ccc(-c2ccccc2)cc1 | 18.6 µM (inactive) | 19.3 µM (inactive) | 22.5 µM (inactive) | 43.9 µM (inactive) | 16.4 µM (inactive) | 21.2 µM (inactive) | 19.1 µM (inactive) | 16.1 µM (inactive) | 21.2 µM (inactive) | 22.6 µM (inactive) | 16.8 µM (inactive) | 23 µM (inactive) | 16.2 µM (inactive) | – | 30.1 µM | – | 24.3 µM (inactive) | 23.4 µM (inactive) | 15.8 µM (inactive) | –
CCN(CC)Cc1cc(Nc2ccnc3ccc4c(nnn4C)c23)ccc1O | 11.1 µM (inactive) | 16.2 µM (inactive) | 5.56 µM (inactive) | 13.5 µM (inactive) | 12.7 µM (inactive) | 21.5 µM (inactive) | 11.5 µM (inactive) | 15 µM (inactive) | – | 5.55 µM (inactive) | – | 4.92 µM (inactive) | 17.2 µM (inactive) | 14.1 µM (inactive) | 3.67 µM | 6.7 µM (inactive) | 15.4 µM (inactive) | 6.62 µM (inactive) | 14.8 µM (inactive) | –
C=C1c2cc3c(cc2CC12Cc1cc4c(cc1C2=O)CCC4)CCC3 (centres undefined) | > 100 µM (inactive) | > 100 µM (inactive) | > 100 µM (inactive) | > 100 µM (inactive) | > 100 µM (inactive) | > 100 µM (inactive) | > 100 µM (inactive) | – | – | > 100 µM (inactive) | > 100 µM (inactive) | > 100 µM (inactive) | > 100 µM (inactive) | > 100 µM (inactive) | > 100 µM | – | > 100 µM (inactive) | > 100 µM (inactive) | > 100 µM (inactive) | > 100 µM (inactive)
COc1ccc(Nc2nc3cc(C(F)(F)F)ccc3n3cccc23)cc1OC | 18.6 µM (inactive) | 16 µM (inactive) | 8.99 µM (inactive) | 27.9 µM (inactive) | 14.5 µM (inactive) | 12.6 µM (inactive) | 10.8 µM (inactive) | 15.5 µM (inactive) | – | 19.4 µM (inactive) | 15.2 µM (inactive) | 22.3 µM (inactive) | 17.8 µM (inactive) | 27.9 µM (inactive) | 11.4 µM | – | 25.5 µM (inactive) | 22.8 µM (inactive) | 17.5 µM (inactive) | 13.6 µM (inactive)
COc1cccc2c1C(=O)c1c(O)c3c(c(O)c1C2=O)CC(O)(C(O)CO)CC3OC1CC2C(OC3COCC(C#N)N32)C(C)O1 (centres undefined) | < 0.01 µM (active) | < 0.01 µM (active) | < 0.01 µM (active) | – | < 0.01 µM (active) | < 0.01 µM (active) | < 0.01 µM (active) | < 0.01 µM (active) | < 0.01 µM (active) | < 0.01 µM (active) | < 0.01 µM (active) | < 0.01 µM (active) | < 0.01 µM (active) | < 0.01 µM (active) | < 0.01 µM | < 0.01 µM (active) | < 0.01 µM (active) | < 0.01 µM (active) | < 0.01 µM (active) | –
C=C(C)C1CCC2(CO)C(O)CC3(C)C(CCC4C5(C)CCC(O)C(C)(C)C5CCC43C)C12 (centres undefined) | > 100 µM (inactive) | 6.58 µM (inactive) | 6.53 µM (inactive) | 3.73 µM (inactive) | 5.14 µM (inactive) | 16.1 µM (inactive) | 2.32 µM (inactive) | – | 34.6 µM (inactive) | 5.36 µM (inactive) | 2.81 µM (inactive) | 4.16 µM (inactive) | 12.7 µM (inactive) | – | 11.9 µM | – | 11.7 µM (inactive) | 3.82 µM (inactive) | 10.5 µM (inactive) | –
